Experimental data published in US10086335B2, “Composition and method for biofouling inhibition of membrane separation device” (Ecolab USA Inc., priority 2013, dated 2018).

Experiments:
[1] = Total chlorine and free chlorine concentration by DPD method; type: physicochemical; conditions: for free chlorine (FRC) concentration: sulfamic acid:sodium hypochlorite 1.2:1, pH >12
Text: The total chlorine concentration (amount) can be detected according to the following method. The combined chlorine can oxidize the iodide into iodine. The iodine and free chlorine can react with DPD (N,N-Diethyl-p-phenylenediamine) to form a red substance, and which can be used to represent the concentration of the total chlorine (using the absorbance obtained at 530 nm measurement to represent the concentration of total chlorine). The above free chlorine concentration (amount) may be determined by the following method. The free chlorine which may exist in the form of hypochlorous acid or ions of hypochlorite can react with DPD (N, N-Diethyl-p-phenylenediamine) indicator rapidly to form a pink-colored substance, and the strength of such color can be used to indicate the amount of free chlorine, for example the concentration of free chlorine is determined by the measurements of absorbance on 530 nm. The combined chlorine concentration in water is calculated by subtracting free chlorine concentration from total chlorine concentration (i.e., TRC-FRC). In the present invention, TRC and FRC are measured for example by HACH DR2800 spectrophotometer.
In order to further reduce the FRC, the second stabilizer ammonium sulfate was used in the present example. In the present example, 67 g sodium hypochlorite and 13 g sulfamic acid (sulfamic acid ≥99.5%, AR, Sinopharm Chemical Reagent Co. Ltd.) were first added to 20 g water. The molar ratio between sulfamic acid and sodium hypochlorite was 1.2 to 1. Then the pH was adjusted to more than 12 by sodium hydroxide. According to the addition amount of sodium hypochlorite, the different molar ratios of second stabilizer ammonium sulfates were added. After the solution was uniformly mixed, DPD and iodine were used to determine the TC concentration and DPD was used to determine the FRC concentration.
In the present example, the second stabilizer ammonium sulfate was used in dilute solution to research the reducing effect on FRC. In the present example, 67 g sodium hypochlorite and 13 g sulfamic acid (sulfamic acid ≥99.5%, AR, Sinopharm Chemical Reagent Co. Ltd.) were first added to 3020 g water. The molar ratio between sulfamic acid and sodium hypochlorite was 1.2 to 1. Comparing to the concentration of the sodium hypochlorite and sulfamic acid of the example 1, that of the example 2 was diluted to about 30 times. Then the pH was adjusted to more than 12 by sodium hydroxide. According to the addition amount of sodium hypochlorite, the different molar ratios of second stabilizer ammonium sulfates were added. After the solution was mixed uniformly, DPD and iodine were used to determine the TC concentration and DPD was used to determine the FRC concentration.

[2] = test system: floating bacteria in water; experiment: Bactericidal effect on the bacteria in water (Total Bacteria Count); conditions: raw water; total chlorine 2 ppm and 10 ppm; 3 hours and 24 hours; FIG. 3
Protocol: This example is mainly focused on using the present method or combination to inhibit the floating bacteria in water. The raw water without adding any biocides was used as the control group. The total chlorine concentration in water was controlled at 2 ppm and 10 ppm, separately. Sodium hypochlorite and two kinds of stabilizers were added to the raw water and sample obtained was used as the experimental group (dual stabilizers). Moreover, the group wherein only sodium hypochlorite was added was the control experimental group 1 (Cl2) and the group wherein sodium hypochlorite and one stabilizer were added to the raw water was the control experimental group 2 (single stabilizer). In the control experimental group 1 and 2, the total chlorine concentrations were controlled at 2 ppm and 10 ppm, separately. The addition method of the above substances and the substances used were identical to the examples 1 or 2. […] After placing the control group, the control experimental group 1, 2 and the experimental group for 3 hours and 24 hours, the number of the bacteria in the water of these samples were determined and compared. The bacterial number was indicated by the Total Bacteria Count (sometimes abbreviated as TBC in the following description), which was determined by referencing the method of 3M™ Petrifilm™ Aerobic Count Plates.

Question: With `N.N.O=S(=O)(O)O` [second stabilizer, ammonium sulfate] as the molecule, how does the “free chlorine (FRC) concentration” value ([1]; concentrated solution, 0.3 moles second stabilizer per 1 mole sodium hypochlorite, reduced from 1200 ppm, FIG. 1) read?
Answer: about 40 ppm

Question: What about the “effect on total chlorine” value ([1]; concentrated solution, 0.3 moles second stabilizer per 1 mole sodium hypochlorite, FIG. 1) of the same molecule?
Answer: without affecting the total chlorine

Question: What about the “free chlorine (FRC) concentration” value ([1]; dilute solution, 0.4 moles second stabilizer per 1 mole sodium hypochlorite, reduced from about 50 ppm, FIG. 2) of the same molecule?
Answer: about 20 ppm

Question: What about the “effect on total chlorine amount” value ([1]; dilute solution, 0.4 moles second stabilizer per 1 mole sodium hypochlorite, FIG. 2) of the same molecule?
Answer: without affecting the total chlorine amount

Question: Which “bactericidal effect (Total Bacteria Count)” value [2] does the source give for `OCl` [sodium hypochlorite] here?
Answer: strongest bactericidal effect
